Columns and labels:
[1] = system: human fibroblasts; assay: Anti-stress effect on UV-A-damaged fibroblasts; type: cell-based; details: + UV-A 20 J/cm^2; for Cell proteins: blank sample = 100; for GSH/proteins: blank sample = 100, blank + UV-A = 65
Protocol: UV-A radiation in the 320 to 400 nm range induces oxidative stress which is mainly produced by the activation of photosensitive biological components which in turn catalyze the formation of ROS-like superoxide anions, hydrogen peroxide and singlet oxygen atoms. The anti-UV-A effect was tested on fibroblasts because UV-A radiation penetrates through the dermis where it causes oxidative damage by lipoperoxidation of the cell membrane and a reduction in the content of reduced glutathione (GHS). To this end, human fibroblasts were cultivated as described in a), exposed to UV-A rays (20 J/cm^2) and the cell counts and the GSH content subsequently determined. The results are set out in Table 3, where they are expressed in %-rel. against a blank sample, and represent the results of 3 series of measurements with triple determination.

[2] = system: bacterial collagenase (clostridium histolyticum); assay: Collagenase inhibition on FITC-marked gelatin; type: biochemical; details: 60 mins. at 20° C.
Protocol: In the event of inflammation, skin proteases, for example collagenase, are released from the polymorphonuclear neutrophilic granulocytes or macrophages. A similar process takes place in the skin of elderly people on exposure to UV rays. As already mentioned, the proteases—also known as matrix metalloproteases (MMPs) through their content of central zinc ions—catalyze the fragmentation of connective tissue proteins. The test substances were tested for collagenase inhibition using bacterial collagenase (clostridium histolyticum) on gelatin marked with fluorochromium (FITC, Calbiochem) as a natural nutrient medium. The incubation time was 60 mins. at 20° C.; the hydrolysis of the substrate was monitored by fluorescence at 393 nm (excitation at 328 nm). The results are set out in Table 6 as the collagenase inhibition in %.

[3] = system: melanocytes (B16 cell line); assay: Inhibition of melanin synthesis in B16 melanocytes; type: cell-based; details: 3 days, blank value = 100
Protocol: Melanin is the pigment responsible for the color of the skin and hair. It is formed in special organelles, the melanosomes, which occur in the melanocytes of the basal layer of the human epidermis. The biosynthesis of melanin begins with the amino acid tyrosine which is oxidized to DOPA (dihydroxyphenylalanine) in the presence of tyrosinase. The DOPA then polymerizes to melanin. […] After incubation for 3 days at 37° C./5% CO2, the nutrient medium was replaced by a solution containing the test substances in various concentrations. After incubation for another 3 days, the cell protein content (Bradford's method) and the content of synthesized melanin were determined through the optical density of the homogenizate at 475 nm. The results are expressed in % against a blank value and are set out in Table 7.

[4] = system: human leukaemic granulocytes; assay: Anti-inflammatory activity: respiratory burst of granulocytes (zymosan, luminol); type: cell-based; details: + stimulation (zymosan), blank + stimulation = 100
Excerpt: In the course of cutaneous inflammation, leucocytes, such as the polymorphonuclear neutrophilic granulocytes (PMNs) for example, are stimulated by peptides, such as cytokines for example, to emit messenger substances, such as leucotriene for example, which are released from activated or necrotic cells in the dermis. These activated PMNs release not only pro-inflammatory cytokinins, leucotrienes and proteases, but also ROS, such as superoxides and hypochlorite anions for example, of which the function is to destroy penetrated pathogenic germs or fungi. This activity of the PMNs during the inflammation is known as so-called respiratory burst. To investigate to what extent the test extracts can prevent or reduce the respiratory burst, a cell line of human leukaemic granulocytes of these PMNs was incubated together with the test substances at 37° C. and 5% by vol. CO2. After the respiratory burst had been initiated by addition of a yeast extract (zymosan) to the cell solution, the release of superoxide anions was determined through their reaction with luminol.

[5] = system: human keratinocytes; assay: Growth inhibition on human keratinocytes with EGF; type: cell-based; details: with EGF 10 ng/ml, 3 days, control = 100, control with EGF = 167
Protocol: Increased proliferation and differentiation of keratinocytes of the hair matrix leads to improved longer hair growth. The following test was carried out to determine the potential of the sugar esters for inhibiting hair growth which is visibly reflected in a reduction in the proliferation of human keratinocyte culture in vitro.
To this end, human keratinocytes were cultivated in a standard cell culture medium containing foetal calf serum (FCS). After incubation for 1 day at 37° C./5% CO2, the growth medium was replaced by standard medium containing 10 ng/ml epidermal growth factor (EGF) and various concentrations of sugar esters dissolved in ethanol (1% by volume).
After incubation for three days, the number of living cells was determined by determining the cell protein content by the Bradford method [Bradford, M. M., A rapid and sensitive method for the quantitation of microgram quantities of protein utilizing the principle of protein-dye binding. Anal. Biochem. (1977), Vol. 72, pp. 248-254].
The results of Table 8 represent the values of triple determinations on two batches expressed in % against a control of cell culture medium without sugar ester.

[6] = system: human keratinocytes; assay: Protecting cells against UVB radiation (cell DNA, LDH and PGE2 release); type: cell-based; details: + UV-B 50 mJ/cm^2; for Cell DNA: blank = 100, control + UV-B = 33; for LDH released / PGE2 released: control + UV-B = 100
Protocol: UVB was selected as the stress factor because the rays produce cutaneous inflammation (erythemas, oedemas) by activating enzymes that release arachidonic acid, such as phospholipase A2 (PLA2) for example. […] The influence of UVB rays on keratinocytes was determined in vitro through the release of cytoplasmatic enzymes, such as LDH (lactate dehydrogenase) for example, which runs parallel to the cell damage and the formation of PGE2. […] The quantity of keratinocytes was determined after trypsination via a cell counter while the LDH concentration was enzymatically determined. The results are set out in Table 4, where they are expressed as the activity in %-rel. against a standard, and represent the mean value of two test series involving double determination.

[7] = system: Propionibacterium acnes; assay: Agar diffusion method, inhibition zones; type: cell-based; details: filter paper with 20 μl test substance; 18 to 24 h at 37° C., anaerobic
Protocol: (§1) The antibacterial activity of the test substances was tested by the diffusion method on agar plates or the agar dilution method. In this method, a round filter paper of defined diameter is first impregnated with the test solution and then applied to the surface of an agar plate inoculated beforehand with the test microorganisms. The size of the inhibition zones is then determined after defined times. In particular, it is possible by this method to determine the MIC (Minimum Inhibitory Concentration) as the lowest concentration of test substance with which complete inhibition of the microorganisms can be obtained.
(§2) Agar diffusion method. The inoculum was prepared using a fresh culture in a stationary growth phase (after ca. 18-24 h) in a BHI solution (brain-heart Infusion). The bacterial suspension was adjusted to 0.5 MacFarland units, corresponding to 1.5 10^8 colony-forming units (cfu)/ml; the suspension was then diluted with a sodium chloride solution (1:100) to adjust a value of 1.5 10^6 cfu/ml. Mueller-Hinton agar (Staphylococcus epidermidis, Staphylococcus aureus) and Wilkins-Chalgrens agar containing 5% by weight sheep's blood (Propionibacterium acnes) were then sterilized for 15 mins. at 121° C. and then placed in Petri dishes. 2 to 4 ml of the bacterial suspension were then added to the Petri dishes, followed by drying at room temperature. The filter papers were impregnated with 20 μl of the test substances and applied to the surface of the agar plates. The inoculated Petri dishes were incubated for 18 to 24 h at 37° C. (the Petri dishes containing Propionibacterium acnes under anaerobic conditions) and the antimicrobial activity was then determined by determination of the growth inhibition zones. The results are set out in Table 10 and represent the diameters of the inhibition zones in mm.

[8] = system: Staphylococcus aureus; assay: Agar diffusion method, inhibition zones; type: cell-based; details: filter paper with 20 μl test substance; 18 to 24 h at 37° C.
Protocol: as §1, §2

[9] = system: Staphylococcus epidermidis; assay: Agar diffusion method, inhibition zones; type: cell-based; details: filter paper with 20 μl test substance; 18 to 24 h at 37° C.
Protocol: as §1, §2

## Trehalose laurate
[1]; conc. 0.003 % w/v
  Cell proteins: 119 %-rel.
  GSH/proteins: 90 %-rel.
[2]; Conc. [w/v] 0.1
  Collagenase inhibition: 21 %-rel.

## Sucrose stearate
[3]; conc. 0.001 % w/v
  Cell melanin: 75 %-rel.
  Cell proteins: 89 %-rel.
[3]; conc. 0.003 % w/v
  Cell melanin: 18 %-rel.
  Cell proteins: 70 %-rel.

## Fructose palmitate
[4]; conc. 0.001 % w/v
  Cell counts: 97 %-rel.
  ROS released: 81 %-rel.
[4]; conc. 0.01 % w/v
  Cell counts: 98 %-rel.
  ROS released: 42 %-rel.
[5]; conc. 0.001 % w/v
  Cell protein content in %: 166%
[5]; conc. 0.003 % w/v
  Cell protein content in %: 143%
[5]; conc. 0.01 % w/v
  Cell protein content in %: 105%
[1]; conc. 0.003 % w/v
  Cell proteins: 91 %-rel.
  GSH/proteins: 81 %-rel.
[2]; Conc. [w/v] 0.03
  Collagenase inhibition: 4 %-rel.
[2]; Conc. [w/v] 0.1
  Collagenase inhibition: 41 %-rel.
[2]; Conc. [w/v] 0.3
  Collagenase inhibition: 78 %-rel.

## Fructose dicaprate
[3]; conc. 0.003 % w/v
  Cell melanin: 88 %-rel.
  Cell proteins: 105 %-rel.
[3]; conc. 0.01 % w/v
  Cell melanin: 41 %-rel.
  Cell proteins: 91 %-rel.

## Glucose palmitate
[4]; conc. 0.001 % w/v
  Cell counts: 102 %-rel.
  ROS released: 99 %-rel.
[4]; conc. 0.01 % w/v
  Cell counts: 91 %-rel.
  ROS released: 58 %-rel.
[1]; conc. 0.003 % w/v
  Cell proteins: 119 %-rel.
  GSH/proteins: 114 %-rel.
[6]; conc. 0.001 % w/v
  Cell DNA: 32 %-rel.
  LDH released: 68 %-rel.
  PGE2 released: 63 %-rel.
[6]; conc. 0.003 % w/v
  Cell DNA: 32 %-rel.
  LDH released: 68 %-rel.
  PGE2 released: 65 %-rel.

## Glucose laurate
[1]; conc. 0.0001 % w/v
  Cell proteins: 95 %-rel.
  GSH/proteins: 91 %-rel.
[2]; Conc. [w/v] 0.1
  Collagenase inhibition: 28 %-rel.
[7]
  Inhibition zones, Propionibacterium acnes: 10 mm
[8]
  Inhibition zones, Staphylococcus aureus: 14 mm
[9]
  Inhibition zones, Staphylococcus epidermidis: 16 mm
[6]; conc. 0.001 % w/v
  Cell DNA: 17 %-rel.
  LDH released: 105 %-rel.
  PGE2 released: 107 %-rel.
[6]; conc. 0.003 % w/v
  Cell DNA: 54 %-rel.
  LDH released: 49 %-rel.
  PGE2 released: 23 %-rel.

## Trehalose caprate
[3]; conc. 0.001 % w/v
  Cell melanin: 53 %-rel.
  Cell proteins: 100 %-rel.
[3]; conc. 0.003 % w/v
  Cell melanin: 23 %-rel.
  Cell proteins: 75 %-rel.
[1]; conc. 0.00003 % w/v
  Cell proteins: 120 %-rel.
  GSH/proteins: 87 %-rel.
[2]; Conc. [w/v] 0.3
  Collagenase inhibition: 52 %-rel.
[7]
  Inhibition zones, Propionibacterium acnes: 10 mm
[8]
  Inhibition zones, Staphylococcus aureus: 10 mm
[9]
  Inhibition zones, Staphylococcus epidermidis: 0 mm

## Glucose caprate
[1]; conc. 0.003 % w/v
  Cell proteins: 109 %-rel.
  GSH/proteins: 144 %-rel.
[6]; conc. 0.003 % w/v
  Cell DNA: 28 %-rel.
  LDH released: 72 %-rel.
  PGE2 released: 50 %-rel.
[6]; conc. 0.01 % w/v
  Cell DNA: 36 %-rel.
  LDH released: 48 %-rel.
  PGE2 released: 28 %-rel.

## Fructose monostearate
[3]; conc. 0.001 % w/v
  Cell melanin: 85 %-rel.
  Cell proteins: 104 %-rel.
[3]; conc. 0.003 % w/v
  Cell melanin: 34 %-rel.
  Cell proteins: 91 %-rel.

## Fructose stearate
[3]; conc. 0.006 % w/v
  Cell melanin: 49 %-rel.
  Cell proteins: 105 %-rel.
[3]; conc. 0.01 % w/v
  Cell melanin: 21 %-rel.
  Cell proteins: 76 %-rel.
[4]; conc. 0.001 % w/v
  Cell counts: 100 %-rel.
  ROS released: 88 %-rel.
[4]; conc. 0.01 % w/v
  Cell counts: 155 %-rel.
  ROS released: 26 %-rel.
[1]; conc. 0.003 % w/v
  Cell proteins: 83 %-rel.
  GSH/proteins: 79 %-rel.
[2]; Conc. [w/v] 0.3
  Collagenase inhibition: 45 %-rel.

## Glucose caprylate
[7]
  Inhibition zones, Propionibacterium acnes: 12 mm
[8]
  Inhibition zones, Staphylococcus aureus: 11 mm
[9]
  Inhibition zones, Staphylococcus epidermidis: 0 mm

Reference: patent US20050220726A1, “Use of sugar esters in cosmetic and/or pharmaceutical preparations” (priority 2003, published 2005)
